Test results: patent US20170022242A1, “NOVEL ANTIVIRAL AND ANTITUMORAL COMPOUNDS” (KATHOLIEKE UNIVERSITEIT LEUVEN, KU LEUVEN R&D, priority 2014, published 2017)
Where two headings read alike, the source gives them in different places.

Key:
HCV1b/Con1 replicon = experiment: HCV replicon antiviral evaluation assay (Luc reporter); format: cell-based; conditions: concentration inhibiting HCV replicon by 50%, Huh7 ET cells, 72 hr
[1] = Cytotoxicity, CytoTox-1 cell proliferation assay of cell numbers; conditions: human
[2] = test system: ET (luc-ubi-neo/ET) Huh7 human hepatoma cell line; experiment: as above; conditions: concentration decreasing cell viability by 50%; Huh7 ET cells, 72 hr; Table 1
[3] = test system: ET (luc-ubi-neo/ET) Huh7 human hepatoma cell line
[4] = Hepatitis C virus, Table 1, 2′-C-methyl nucleoside phosphoramidates
[5] = Table 1, 2′-C-methyl nucleoside phosphoramidates

Compound	EC50 (HCV1b/Con1 replicon; [5])	CC50 [2]	CC50 [3]	also measured
C[C@@]1(O)[C@H](O)[C@@H](CO)O[C@H]1n1ccc(N)nc1=O [Cmpd 4, 2′-C-methylcytidine, reference compound]				EC50 (HCV1b/Con1 replicon; [4]): 1.34 µM; CC50 at 72 h [1]: > 100 µM
C[C@@]1(O)[C@H](O)[C@@H](CO)O[C@H]1n1ccc(=O)[nH]c1=O [Cmpd 5, 2′-C-methyluridine, reference compound]				EC50 (HCV1b/Con1 replicon; [4]): 6.31 µM; CC50 at 72 h [1]: > 100 µM
COC(=O)C[C@H](NP(=O)(OCC1OC(n2ccc(N)nc2=O)C(C)(O)C1O)Oc1ccccc1)C(=O)OC (stereo partly drawn) [Cmpd 16a, 2′-C-methylcytidine-5′-[phenyl-bis(methoxy-aspartyl)]phosphate]	3.71 µM	> 100 µM		
COC(=O)[C@H](CC(=O)OCc1ccccc1)NP(=O)(OCC1OC(n2ccc(N)nc2=O)C(C)(O)C1O)Oc1ccccc1 (stereo partly drawn) [Cmpd 16b, 2′-C-methylcytidine-5′-[phenyl-(α-methoxy-β-benzyloxy-aspartyl)]phosphate]	1.32 µM	> 100 µM		
CC(C)OC(=O)C[C@H](NP(=O)(OCC1OC(n2ccc(N)nc2=O)C(C)(O)C1O)Oc1ccccc1)C(=O)OC(C)C (stereo partly drawn) [Cmpd 16c, 2′-C-Methylcytidine-5′-[1-phenyl-bis(isopropyl-aspartyl)]phosphate]	0.96 µM	> 100 µM		
CCCCOC(=O)C[C@H](NP(=O)(OC[C@H]1O[C@@H](n2ccc(N)nc2=O)[C@](C)(O)[C@@H]1O)Oc1ccccc1)C(=O)OCCCC (stereo partly drawn) [Cmpd 16d, 2′-C-Methylcytidine-5′-[phenyl-bis(n-butyl-aspartyl)]phosphate]	0.26 µM	30.9 µM		
CCCCCOC(=O)C[C@H](NP(=O)(OCC1OC(n2ccc(N)nc2=O)C(C)(O)C1O)Oc1ccccc1)C(=O)OCCCCC (stereo partly drawn) [Cmpd 16e, 2′-C-Methyl-cytidine-5′-[phenyl-bis(amyl-aspartyl)]phosphate]	0.05 µM		9.53 µM	
CC(C)CCOC(=O)C[C@H](NP(=O)(OCC1OC(n2ccc(N)nc2=O)C(C)(O)C1O)Oc1ccccc1)C(=O)OCCC(C)C (stereo partly drawn) [Cmpd 16f, 2′-C-Methylcytidine-5′-[phenyl-bis(isoamyl-aspartyl)]phosphate]	0.05 µM	9.54 µM		
COC(=O)C[C@H](NP(=O)(OCC1OC(n2ccc(=O)[nH]c2=O)C(C)(O)C1O)Oc1ccccc1)C(=O)OC (stereo partly drawn) [Cmpd 17a, 2′-C-methyluridine-5′-[phenyl-bis(methoxy-aspartyl)]phosphate]	1.13 µM	> 100 µM		
COC(=O)[C@H](CC(=O)OCc1ccccc1)NP(=O)(OCC1OC(n2ccc(=O)[nH]c2=O)C(C)(O)C1O)Oc1ccccc1 (stereo partly drawn) [Cmpd 17b, 2′-C-methyluridine-5′-[phenyl-(α-methoxy-β-benzyloxy-aspartyl)]phosphate]	0.26 µM	43.4 µM		
CC(C)OC(=O)C[C@H](NP(=O)(OCC1OC(n2ccc(=O)[nH]c2=O)C(C)(O)C1O)Oc1ccccc1)C(=O)OC(C)C (stereo partly drawn) [Cmpd 17c, 2′-C-Methyl-uridine-5′-[1-phenyl-bis(isopropyl-aspartyl)]phosphate]	0.29 µM		35.7 µM	
CCCCOC(=O)C[C@H](NP(=O)(OCC1OC(n2ccc(=O)[nH]c2=O)C(C)(O)C1O)Oc1ccccc1)C(=O)OCCCC (stereo partly drawn) [Cmpd 17d, 2′-C-Methyl-uridine-5′-[phenyl-bis(n-butyl-aspartyl)]phosphate]	0.04 µM		4.64 µM	
CCCCCOC(=O)C[C@H](NP(=O)(OCC1OC(n2ccc(=O)[nH]c2=O)C(C)(O)C1O)Oc1ccccc1)C(=O)OCCCCC (stereo partly drawn) [Cmpd 17e, 2′-C-Methyl-uridine-5′-[phenyl-bis(amyl-aspartyl)]phosphate]	0.03 µM		7.11 µM	
CC(C)CCOC(=O)C[C@H](NP(=O)(OCC1OC(n2ccc(=O)[nH]c2=O)C(C)(O)C1O)Oc1ccccc1)C(=O)OCCC(C)C (stereo partly drawn) [Cmpd 17f, 2′-C-Methyl-uridine-5′-[phenyl-bis(isoamyl-aspartyl)]phosphate]	0.03 µM		10 µM	
C[C@@]1(F)[C@H](O)[C@@H](CO)O[C@H]1n1ccc(=O)[nH]c1=O [Cmpd 22, 2′-deoxy-2′-fluoro-2′-C-methyluridine, reference compound]				EC50 (HCV1b/Con1 replicon; Hepatitis C virus, Table 2, 2′-F-nucleoside phosphoramidates): > 100 µM; CC50 at 72 h [1]: > 100 µM
CC(C)CCOC(=O)C[C@H](NP(=O)(OCC1OC(n2ccc(=O)[nH]c2=O)C(C)(F)C1O)Oc1ccccc1)C(=O)OCCC(C)C (stereo partly drawn) [Cmpd 23a, 2′-Deoxy-2′-fluoro-2′-C-methyl-uridine-5′-[phenyl-bis(isoamyl-aspartyl)]phosphate]			27.7 µM	EC50 (HCV1b/Con1 replicon; Table 2, 2′-F-nucleoside phosphoramidates): 0.06 µM
CC(C)CCOC(=O)C[C@H](NP(=O)(OCC1OC(n2ccc(=O)[nH]c2=O)C(C)(F)C1O)Oc1ccccc1)C(=O)OCCC(C)C (stereo partly drawn) [Mixture 23a/23b, 2′-Deoxy-2′-fluoro-2′-C-methyl-uridine-5′-[phenyl-bis(isoamyl-aspartyl)]phosphate]			33.1 µM	
